Test results reported in US20080045594A1, “Use of at Least One Conjugated Triene-Containing Fatty Acid for Preparing a Medicine for Treating Inflammation” (LABORATOIRES EXPANSCIENCE, priority 2004, published 2008).

Test system: Normal human adipocytes
Assay: lipid synthesis in suspended adipocytes (incorporation of radio-labelled acetate)
Type: cell-based
Settings: 10 μM; reference molecule, inhibitor of FAS
Experimental: Normal human adipocytes were isolated from abdominal biopsies (plastic surgery). Immediately after receipt, the samples were incubated for 30 min at 37° C. in the presence of collagenase (Sigma). The suspension of adipocytes is then rinsed and diluted 3 times in the culture medium.
Culture medium: bicarbonate (Life Technologies) 1.87 mg/ml, penicillin/streptomycin (Life Technologies) 25 IU/ml/25 μg/ml, glutamine (Life Technologies) 2 mM, MEM (Merck Eurolab) 100% v/v, albumin of bovine origin (Sigma) 0.5% w/v.
The suspended adipocytes are incubated for 1 h at 37° C. in the presence of different concentrations of MA105 (20 and 2 ppm) diluted in THF (tetrahydrofurane). A […] volume of radio-labelled acetate (2-C^14, 60.87 μCi/ml, Amersham) is then added to the preparation. After 4 hrs of incubation, the lipids are extracted according to the procedure described by Bligh and Dyer (methanol/chloroform/water), evaporated under nitrogen and the incorporated radioactivity was quantitated by liquid scintillation (LKB 1210 Rackbeta).

Question: For `C/C=C/C/C=C/CCC(=O)[C@H]1O[C@H]1C(N)=O` [ceruline], which “inhibition of the incorporation of acetate” value is on record?
Answer: 75 % inhibition/control
